# From US4581451A, “Preparation of di- and tri-substituted xanthine compounds” (priority 1980, dated 1986)
# Where two headings read alike, the source gives them in different places.
# Assays:
# [1] = behavioural study in rats: anxiety induced by a new environment (rearings and movements); type: in vivo, male Sprague-Dawley rats; settings: for ED50: Rattus norvegicus, 0.5 h
# Excerpt: The xanthines obtained in accordance with the preceding Examples were the subject of a behavioural study in rats as a function of the anxiety induced by a new environment. In rats, anxiety is manifested by rearing the animal on its two hind paws, whilst locomotive activity is expressed by their movements.
# A state of anxiety is induced by confronting "naive" male Sprague-Dawley (Iffa-Credo, France) rats weighing from 260 to 300 g with a new environment in the form of cages of Macrolon (30×25 cm) which are situated in a sound-proofed air-conditioned room (22° C./50% relative humidity).
# The number of rearings and movements is automatically determined by means of infrared photoelectric cells which only emit electrical pulses for the active movements of the animal and not for its static movements, such as those of its head and tail, for reasons of reproducibility. These photoelectric cells scan the cages at two different levels so as to distinguish the standing-up movements from the other movements. The number of rearings and movements is counted by the two rows of photoelectric cells, memorised and read out using a printer in accordance with a pre-established program.
# The tested compound in solution in the form of its sodium salt is orally administered by oesophagus probe (the reference administration being formed by 6 ml/kg of distilled water) 30 minutes before the animals are placed in the cages. The number of rearings and movements is determined during the 15 minutes after they have been put into the cages in relation to the effect generated by the reference administration.
# The ED 50 dose (expressed in mg/kg), i.e. the quantity of substance required to bring about a 50% variation in the motive activity in relation to the reference administration, is determined from the development of the effects of the tested substances on the number of movements and rearings as a function of the progressive doses administered expressed as a percentage of the movements and rearings counted for the reference administration.
# The gradients of the regression curves corresponding to the movements and to the rearings are compared by recording the value of the gradient of the movement curve on the abscissa (d) and the value of the gradient of the rearing curve on the ordinant (r) of a system of rectungular axes.
# The ratio of the gradient of the movements to that of the rearings is also determined, enabling the specificity of effect of a given substance on the anxiety state to be assessed.
# The effect of a substance is determined by its position relative to the curve d=r of gradient=1. The substances situated on this curve have a similar effect on the rearings and movements, being sedatives with a non-specific effect (S.N.). For these compounds, the ED 50 value quoted corresponds to the mean taken from the two regression curves.
# These compounds are sedatives of anxiolytic character (S.A.). In this case, the ED 50 value is calculated from the regression curve of the rearings.
# [2] = base screening: diuretic in male rats; type: in vivo; settings: Rattus norvegicus, read-out: minimal effective dose producing a significant response, diuretic (c)
# Excerpt: (c) diuretic in male rats, as determined in accordance with W. L. Lipschitz, Z Hadidian and A. Kerpcsar, JPET, Vol. 79, pages 97-110, 1943
# [3] = base screening: bronchodilatory in vitro
# Excerpt: (e) bronchodilatory in vitro as determined in accordance with F. P. Luduena et al., Arch. int. Pharmacodyn, Vol. 111, pages 392-400, 1957
# [4] = base screening: anti-allergic in male and female rats; type: in vivo; settings: for minimal effective dose: Rattus norvegicus, read-out: minimal effective dose producing a significant response, anti-allergic (d)
# Excerpt: (d) anti-allergic in male and female rats, as determined in accordance with J. Goose and A. M. J. N. Blair, Immunol., Vol. 16, pages 749-760, 1969
# in vivo [5] = settings: rat, po, solution in DMSO
# Excerpt: (b) Determination of the acute toxicity LD 50 in male and female rats in solution is DMSO (reference DMSO alone) in accordance with C.
# [6] = base screening: anti-histamine in vitro
# Excerpt: (f) anti-histamine in vitro as determined in accordance with R. Magnus, Arch f.d., ges. physiol., Vol. 102, pages 123-151, 1904.
# [7] = climbing behaviour induced by apomorphine in mice; type: in vivo; settings: p.o.
# Excerpt: (§1) The compounds of Examples 1, 4, 11 and 12 were subjected to behavioural tests in accordance with "predictability and specificity of behaviour screening tests for neuroleptics", P. Worms and K. G. Lloyd, […], Vol. 5, pages 445-450, 1979, comprising: […]
# [8] = rectal temperature in mice; type: in vivo; settings: p.o.
# Excerpt: as §1
# [9] = hypomotility induced by amphetamine in rats; type: in vivo; settings: p.o.
# Excerpt: as §1
# [10] = catalepsy induced by haloperidol in rats; type: in vivo; settings: p.o.
# Excerpt: as §1
# [11] = stereotype behaviour induced by apomorphine in rats; type: in vivo; settings: p.o.
# Excerpt: as §1
# [12] = analgesia induced by pentobarbital in mice; type: in vivo; settings: p.o.
# Excerpt: as §1
# in vivo [13] = settings: mouse, po, solution in DMSO
# [14] = oral, sodium salt in solution, 30 min before test, 15 min count, S.N.: mean of two regression curves, S.A.: from rearings curve, read-out: ED 50
# [15] = female, read-out: LD 50, rats female
# [16] = male, read-out: LD 50, rats male
# [17] = female, read-out: LD 50, mice female
# [18] = male, read-out: LD 50, mice male
smiles,measurement,setting,value
"CCCCn1c(=O)c2[nH]c(C)nc2n(CCC)c1=O [Example 13, 1-butyl-3-propyl-8-methyl xanthine]",ED50,[1]; [14],1.05 mg/kg
"C=CCn1c(=O)n(CCCC)c(=O)c2[nH]c(C)nc21 [Example 10, 1-butyl-3-allyl-8-methyl xanthine]",ED50,[1]; [14],3.95 mg/kg
"Cn1c(=O)c2[nH]cnc2n(C)c1=O [theophylline, reference compound]",action profile,[1]; conclusion from Table 3,psychostimulating
same,effect on the anxiety state,[1]; conclusion from Table 3,does not have any effect on the anxiety state
"C=CCn1c(=O)c2[nH]cnc2n(CCCC)c1=O [Example 2, 1-allyl-3-butyl xanthine]",minimal effective dose,[2],10 mg/kg
same,"minimal effective concentration producing a significant response, bronchodilatory (e)",[3],25 µg/mL
same,minimal effective dose,[4],10 mg/kg
same,LD50,in vivo [5]; [15],> 200 mg/kg
same,LD50,in vivo [5]; [16],> 200 mg/kg
same,"minimal effective concentration producing a significant response, anti-histamine (f)",[6],100 µg/mL
same,ED50,[1]; [14],1.6 mg/kg
"C=CCn1c(=O)c2[nH]c(CC)nc2n(CCCC)c1=O [Example 5, 1-allyl-3-butyl-8-ethyl xanthine]",minimal effective dose,[2],2.5 mg/kg
same,"minimal effective concentration producing a significant response, bronchodilatory (e)",[3],5 µg/mL
same,"minimal effective dose producing a significant response, anti-allergic (d)",[4],no effect
same,"minimal effective concentration producing a significant response, anti-histamine (f)",[6],100 µg/mL
same,ED50,[1]; [14],6.24 mg/kg
"C=CCn1c(=O)c2[nH]c(C)nc2n(CCC)c1=O [Example 6, 1-allyl-3-propyl-8-methyl xanthine]",ED50,[1]; [14],0.27 mg/kg
"Cc1nc2c([nH]1)c(=O)n(CC(C)C)c(=O)n2CC(C)C [Example 15, 1,3-diisobutyl-8-methyl xanthine]",ED50,[1]; [14],0.42 mg/kg
"CCCCn1c(=O)n(CC)c(=O)c2[nH]c(C)nc21 [Example 8, 1-ethyl-3-butyl-8-methyl xanthine]",ED50,[1]; [14],1.02 mg/kg
"CCCn1c(=O)c2[nH]c(C)nc2n(CC(C)C)c1=O [Example 12, 1-propyl-3-isobutyl-8-methyl xanthine]",climbing behaviour induced by apomorphine,[7],inhibition at 1 mg/kg p.o.
same,rectal temperature,[8],hypothermal effect at 2 mg/kg p.o.
same,hypomotility induced by amphetamine,[9],antagonism at 0.5 mg/kg p.o.
same,catalepsy induced by haloperidol,[10],potentialisation at 1 mg/kg p.o.
same,LD50,in vivo [5]; [15],19 mg/kg
same,LD50,in vivo [5]; [16],28 mg/kg
same,ED50,[1]; [14],0.25 mg/kg
same,stereotype behaviour induced by apomorphine,[11],no antagonism up to 8 mg/kg p.o.
same,analgesia induced by pentobarbital,[12],potentialisation at 0.5 mg/kg p.o.
"CNC1=Nc2ccc(Cl)cc2C(c2ccccc2)=[N+]([O-])C1 [chlordiazepoxide, reference compound]",ED50,[1]; po,12 mg/kg
"C=CCn1c(=O)c2[nH]c(C)nc2n(CCCC)c1=O [Example 1, 1-allyl-3-butyl-8-methyl xanthine]",climbing behaviour induced by apomorphine,[7],inhibition at 1 mg/kg p.o.
same,rectal temperature,[8],hypothermal effect at 2 mg/kg p.o.
same,hypomotility induced by amphetamine,[9],antagonism at 0.5 mg/kg p.o.
same,minimal effective dose,[2],5 mg/kg
same,"minimal effective concentration producing a significant response, bronchodilatory (e)",[3],100 µg/mL
same,minimal effective dose,[4],2.5 mg/kg
same,catalepsy induced by haloperidol,[10],potentialisation at 1 mg/kg p.o.
same,"minimal effective concentration producing a significant response, anti-histamine (f)",[6],100 µg/mL
same,ED50,[1]; po,0.14 mg/kg
same,stereotype behaviour induced by apomorphine,[11],no antagonism up to 8 mg/kg p.o.
same,analgesia induced by pentobarbital,[12],potentialisation at 0.5 mg/kg p.o.
"CCCn1c(=O)c2[nH]c(C)nc2n(CCC)c1=O [Example 14, 1,3-dipropyl-8-methyl xanthine]",ED50,[1]; [14],0.37 mg/kg
"CCCCn1c(=O)n(CCC)c(=O)c2[nH]c(C)nc21 [Example 11, 1-propyl-3-butyl-8-methyl xanthine]",climbing behaviour induced by apomorphine,[7],inhibition at 1 mg/kg p.o.
same,LD50,in vivo [13]; [17],151 mg/kg
same,LD50,in vivo [13]; [18],91 mg/kg
same,rectal temperature,[8],hypothermal effect at 2 mg/kg p.o.
same,hypomotility induced by amphetamine,[9],antagonism at 0.5 mg/kg p.o.
same,minimal effective dose,[2],0.25 mg/kg
same,"minimal effective concentration producing a significant response, bronchodilatory (e)",[3],10 µg/mL
same,"minimal effective dose producing a significant response, anti-allergic (d)",[4],no effect
same,catalepsy induced by haloperidol,[10],potentialisation at 1 mg/kg p.o.
same,LD50,in vivo [5]; [15],15 mg/kg
same,LD50,in vivo [5]; [16],25 mg/kg
same,"minimal effective concentration producing a significant response, anti-histamine (f)",[6],50 µg/mL
same,ED50,[1]; [14],0.35 mg/kg
same,stereotype behaviour induced by apomorphine,[11],no antagonism up to 8 mg/kg p.o.
same,analgesia induced by pentobarbital,[12],potentialisation at 0.5 mg/kg p.o.
"O=C(CCCN1CCC(O)(c2ccc(Cl)cc2)CC1)c1ccc(F)cc1 [haloperidol, reference compound]",ED50,[1]; po,1 mg/kg
"CCCCn1c(=O)n(CC)c(=O)c2[nH]c(CC)nc21 [Example 9, 1,8-diethyl-3-butyl xanthine]",minimal effective dose,[2],5 mg/kg
same,"minimal effective concentration producing a significant response, bronchodilatory (e)",[3],25 µg/mL
same,"minimal effective dose producing a significant response, anti-allergic (d)",[4],no effect
same,"minimal effective concentration producing a significant response, anti-histamine (f)",[6],50 µg/mL
same,ED50,[1]; [14],2.38 mg/kg
"C=CCn1c(=O)c2[nH]c(C)nc2n(CCC(C)C)c1=O [Example 7, 1-allyl-3-isopentyl-8-methyl xanthine]",ED50,[1]; [14],1.03 mg/kg
"CCCCn1c(=O)n(C(C)C)c(=O)c2[nH]c(C)nc21 [Example 16, 1-isopropyl-3-butyl-8-methyl xanthine]",ED50,[1]; [14],1.76 mg/kg
"C=CCn1c(=O)c2[nH]cnc2n(CC(C)C)c1=O [Example 3, 1-allyl-3-isobutyl xanthine]",minimal effective dose,[2],5 mg/kg
same,"minimal effective concentration producing a significant response, bronchodilatory (e)",[3],no effect
same,"minimal effective dose producing a significant response, anti-allergic (d)",[4],no effect
same,"minimal effective concentration producing a significant response, anti-histamine (f)",[6],200 µg/mL
same,ED50,[1]; [14],0.98 mg/kg
"C=CCn1c(=O)c2[nH]c(C)nc2n(CC(C)C)c1=O [Example 4, 1-allyl-3-isobutyl-8-methyl xanthine]",climbing behaviour induced by apomorphine,[7],inhibition at 1 mg/kg p.o.
same,LD50,in vivo [13]; [17],49 mg/kg
same,LD50,in vivo [13]; [18],79 mg/kg
same,rectal temperature,[8],hypothermal effect at 2 mg/kg p.o.
same,hypomotility induced by amphetamine,[9],antagonism at 0.5 mg/kg p.o.
same,minimal effective dose,[2],20 mg/kg
same,"minimal effective concentration producing a significant response, bronchodilatory (e)",[3],no effect
same,minimal effective dose,[4],50 mg/kg
same,catalepsy induced by haloperidol,[10],potentialisation at 1 mg/kg p.o.
same,LD50,in vivo [5]; [15],17 mg/kg
same,LD50,in vivo [5]; [16],23 mg/kg
same,"minimal effective concentration producing a significant response, anti-histamine (f)",[6],no effect
same,ED50,[1]; [14],0.25 mg/kg
same,Effect,[1]; sedative/anxiolytic class,S.N
same,stereotype behaviour induced by apomorphine,[11],no antagonism up to 8 mg/kg p.o.
same,analgesia induced by pentobarbital,[12],potentialisation at 0.5 mg/kg p.o.
"CN(C)CCCN1c2ccccc2Sc2ccc(Cl)cc21 [chlorpromazine, reference compound]",ED50,[1]; po,21 mg/kg
